This passage reports T/C results from PubChem BioAssay AID256 (DTP/NCI, 2004).

Where “and” joins values, the source holds several entries; their conditions need not be identical. Equal values may be shown once. Inconclusive results and toxic doses are left out.

This assay concerns CD2F1 mice, L1210 leukemia ip, survival T/C. Briefly: NCI In Vivo Anticancer Drug Screen. Data for tumor model L1210 Leukemia (intraperitoneal) in CD2F1 (CDF1) mice. Particulars: higher = longer survival. Summed up: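 Activity against a transplanted murine tumor was judged by comparing the compound group with a vehicle group. The outcome in the treated animals was divided by that in the controls.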

Where [1] appears, read: endpoint: mean survival time, dose: 100.0 mg/kg/injection, schedule: Q01DX009 (ip), vehicle: saline with Tween-80.
[2] abbreviates: endpoint: mean survival time, dose: 100.0 mg/kg/injection, schedule: Q04DX003 (ip), vehicle: saline with Tween-80.
Setting [3] is: endpoint: mean survival time, dose: 200.0 mg/kg/injection, schedule: Q01DX009 (ip), vehicle: saline with Tween-80.
Setting [4] is: endpoint: mean survival time, dose: 200.0 mg/kg/injection, schedule: Q04DX003 (ip), vehicle: saline with Tween-80.
The mark [5] stands for this setting: endpoint: mean survival time, dose: 400.0 mg/kg/injection, schedule: Q01DX009 (ip), vehicle: saline with Tween-80.
The mark [6] stands for this setting: endpoint: mean survival time, dose: 400.0 mg/kg/injection, schedule: Q04DX003 (ip), vehicle: saline with Tween-80.
Setting [7] is: endpoint: mean survival time, dose: 100.0 mg/kg/injection, schedule: Q01DX001 (ip), vehicle: Klucel (hydroxypropylcellulose) (HPC).
[8] abbreviates: endpoint: mean survival time, dose: 200.0 mg/kg/injection, schedule: Q01DX001 (ip), vehicle: Klucel (hydroxypropylcellulose) (HPC).
Setting [9] is: endpoint: mean survival time, dose: 400.0 mg/kg/injection, schedule: Q01DX001 (ip), vehicle: Klucel (hydroxypropylcellulose) (HPC).

Consider `CC(=O)NCC1CCN(C(C)=O)CC1`, for which the T/C runs as follows: (endpoint: mean survival time, dose: 100.0 mg/kg/injection, schedule: Q04DX003 (ip), vehicle: saline) 94 % of control; (endpoint: mean survival time, dose: 200.0 mg/kg/injection, schedule: Q04DX003 (ip), vehicle: saline) 96 % of control; (endpoint: mean survival time, dose: 400.0 mg/kg/injection, schedule: Q04DX003 (ip), vehicle: saline) 96 % of control.

Regarding `CCCCOC(=O)c1ccc(NC(=O)Nc2ccccc2OC)cc1`, the T/C is 97 % of control under setting [1]; 108 % of control under setting [2]; 91 % of control under setting [3]; 103 % of control under setting [4]; 92 % of control under setting [5]; 88 % of control under setting [6].

In the case of `O=C1c2ccccc2C(=O)N1CNc1cccc(NCN2C(=O)c3ccccc3C2=O)n1`, the T/C is, setting by setting: under setting [2], 104 % of control; under setting [4], 106 % of control; under setting [6], 90 % of control.

Regarding `N#Cc1ccccc1NN=NCc1ccccc1`, the T/C (endpoint: mean survival time, dose: 100.0 mg/kg/injection, schedule: Q01DX001 (ip), vehicle: saline with Tween-80) is 97 % of control and the T/C (endpoint: mean survival time, dose: 400.0 mg/kg/injection, schedule: Q01DX001 (ip), vehicle: saline with Tween-80) was 90 % of control.

`C=C1C=CC1=O`: the T/C is, setting by setting: (endpoint: mean survival time, dose: 1.0 micrograms/kg/injection, schedule: Q01DX009 (ip), vehicle: olive oil, sesame oil, peanut oil) 97 % of control; (endpoint: mean survival time, dose: 1.0 micrograms/kg/injection, schedule: Q01DX009 (ip), vehicle: other) 102 % of control; (endpoint: mean survival time, dose: 6.0 micrograms/kg/injection, schedule: Q01DX009 (ip), vehicle: olive oil, sesame oil, peanut oil) 97 % of control; (endpoint: mean survival time, dose: 6.0 micrograms/kg/injection, schedule: Q01DX009 (ip), vehicle: other) 103 % of control; (endpoint: mean survival time, dose: 10.0 micrograms/kg/injection, schedule: Q01DX009 (ip), vehicle: olive oil, sesame oil, peanut oil) 94 % of control; (endpoint: mean survival time, dose: 10.0 micrograms/kg/injection, schedule: Q01DX009 (ip), vehicle: other) 101 % of control. Further, the T/C (endpoint: mean survival time, dose: 60.0 micrograms/kg/injection, schedule: Q01DX009 (ip), vehicle: olive oil, sesame oil, peanut oil) was 96 % of control; the T/C (endpoint: mean survival time, dose: 60.0 micrograms/kg/injection, schedule: Q01DX009 (ip), vehicle: other) was 104 % of control; the T/C (endpoint: mean survival time, dose: 100.0 micrograms/kg/injection, schedule: Q01DX006 (ip), vehicle: other) was 101 % of control; the T/C (endpoint: mean survival time, dose: 100.0 micrograms/kg/injection, schedule: Q01DX009 (ip), vehicle: olive oil, sesame oil, peanut oil) is 97 % of control; the T/C (endpoint: mean survival time, dose: 100.0 micrograms/kg/injection, schedule: Q01DX009 (ip), vehicle: other) is 100 % of control; the T/C (endpoint: mean survival time, dose: 600.0 micrograms/kg/injection, schedule: Q01DX009 (ip), vehicle: olive oil, sesame oil, peanut oil) was 91 % of control. For the same molecule, the T/C (endpoint: mean survival time, dose: 1000.0 micrograms/kg/injection, schedule: Q01DX009 (ip), vehicle: olive oil, sesame oil, peanut oil) was 96 % of control.

Consider `O=C(NC(=O)c1cn(C2OC(CO)C(O)C2O)nn1)Nc1ccc(Cl)cc1` (stereo not drawn), for which the T/C is 93 % of control (endpoint: mean survival time, dose: 12.5 mg/kg/injection, schedule: Q01DX005 (ip), vehicle: other) and 90 % of control (endpoint: mean survival time, dose: 50.0 mg/kg/injection, schedule: Q01DX005 (ip), vehicle: other).

In the case of `[Cl][Pt+2][Cl].[NH-]C1CCC1[NH-]` (stereo not drawn), the T/C is 111 % of control (endpoint: median survival time, dose: 2.5 mg/kg/injection, schedule: Q04DX003 (ip), vehicle: Klucel (hydroxypropylcellulose) (HPC)); 156 % of control and 158 % of control (endpoint: median survival time, dose: 10.0 mg/kg/injection, schedule: Q04DX003 (ip), vehicle: Klucel (hydroxypropylcellulose) (HPC)); 177 % of control (endpoint: median survival time, dose: 20.0 mg/kg/injection, schedule: Q04DX003 (ip), vehicle: Klucel (hydroxypropylcellulose) (HPC)).

`O=C1NC(=O)C2CC=CCC12` (stereo not drawn): the T/C runs as follows: under setting [1], 96 % of control; under setting [3], 102 % of control; under setting [5], 102 % of control.

In the case of `C=C(C)C(=O)OCCO` (tested in a mixture with another compound), the T/C was 106 % of control under setting [1]; 98 % of control under setting [2]; 101 % of control under setting [3]; 98 % of control under setting [4]; 100 % of control under setting [5]; 100 % of control under setting [6].

As for `O=C(C1=CN(CCCO)CCC1)c1cc2ccccc2n1S(=O)(=O)c1ccccc1`, the T/C was 104 % of control under setting [2], 90 % of control under setting [4] and 97 % of control under setting [6].

For `CCCCCCCCCCCCCCCOc1ccc2ccccc2c1`, the T/C runs as follows: under setting [7], 102 % of control; under setting [8], 94 % of control; under setting [9], 90 % of control.

As for `Cc1cn(C2CC3O[P@](=S)(Nc4ccccc4)OCC3O2)c(=O)[nH]c1=O` (stereo partly drawn), the T/C by setting is: (endpoint: median survival time, dose: 12.75 mg/kg/injection, schedule: Q01DX005 (ip), vehicle: saline with Tween-80) 100 % of control; (endpoint: median survival time, dose: 25.5 mg/kg/injection, schedule: Q01DX005 (ip), vehicle: saline with Tween-80) 100 % of control; (endpoint: median survival time, dose: 51.0 mg/kg/injection, schedule: Q01DX005 (ip), vehicle: saline with Tween-80) 100 % of control; (endpoint: median survival time, dose: 102.0 mg/kg/injection, schedule: Q01DX005 (ip), vehicle: saline with Tween-80) 93 % of control.

As to `N#CC(CN1CCOCC1)[N+](=O)[O-]` (stereo not drawn), the T/C under setting [1] was 95 % of control, the T/C under setting [3] is 100 % of control and the T/C under setting [5] was 118 % of control.

As for `COc1ccc(CNCCCCCCNCc2ccc(OC)cc2)cc1`, the T/C is, setting by setting: (endpoint: mean survival time, dose: 50.0 mg/kg/injection, schedule: Q01DX009 (ip), vehicle: saline with Tween-80) 100 % of control; under setting [1], 95 % of control; under setting [2], 101 % of control; under setting [4], 87 % of control.

With `CCCCCCCCOc1ccc(Cl)cc1`, the T/C by setting is: (endpoint: mean survival time, dose: 100.0 mg/kg/injection, schedule: Q04DX002 (ip), vehicle: saline with Tween-80) 90 % of control; (endpoint: mean survival time, dose: 200.0 mg/kg/injection, schedule: Q04DX002 (ip), vehicle: saline with Tween-80) 90 % of control; (endpoint: mean survival time, dose: 400.0 mg/kg/injection, schedule: Q04DX002 (ip), vehicle: saline with Tween-80) 93 % of control.

Take `CC(=O)/C=C/c1ccc([N+](=O)[O-])cc1`: the T/C (endpoint: mean survival time, dose: 100.0 mg/kg/injection, schedule: Q04DX003 (ip), vehicle: saline sonified) is 102 % of control; the T/C (endpoint: mean survival time, dose: 200.0 mg/kg/injection, schedule: Q04DX003 (ip), vehicle: saline sonified) was 102 % of control; the T/C (endpoint: mean survival time, dose: 400.0 mg/kg/injection, schedule: Q04DX003 (ip), vehicle: saline sonified) is 95 % of control.

On to `CSc1nn(C2OC(CO)C(O)C2O)c(=O)[nH]c1=O` (stereo not drawn), for which the T/C (endpoint: mean survival time, dose: 12.5 mg/kg/injection, schedule: Q01DX005 (ip), vehicle: distilled water + Tween-80) was 102 % of control; the T/C (endpoint: mean survival time, dose: 25.0 mg/kg/injection, schedule: Q01DX005 (ip), vehicle: distilled water + Tween-80) is 95 % of control; the T/C (endpoint: mean survival time, dose: 50.0 mg/kg/injection, schedule: Q01DX005 (ip), vehicle: distilled water + Tween-80) was 98 % of control; the T/C (endpoint: mean survival time, dose: 100.0 mg/kg/injection, schedule: Q01DX005 (ip), vehicle: distilled water + Tween-80) was 102 % of control; the T/C (endpoint: mean survival time, dose: 200.0 mg/kg/injection, schedule: Q01DX005 (ip), vehicle: distilled water + Tween-80) is 104 % of control.

Turning to `Cc1cc(C)c(C(=O)O)c(C(=O)O)c1`, the T/C by setting is: under setting [7], 106 % of control; under setting [8], 95 % of control; under setting [9], 106 % of control.

Take `C=C(C)C12OC3(c4ccccc4)OC1C1C4OC4(CO)C(O)C4(O)C(=O)C(C)=CC4C1(O3)C(C)C2OC(=O)c1ccccc1` (stereo not drawn): the T/C is, setting by setting: (endpoint: mean survival time, dose: 0.1 mg/kg/injection, schedule: Q01DX009 (ip), vehicle: saline) 96 % of control; (endpoint: mean survival time, dose: 0.2 mg/kg/injection, schedule: Q01DX009 (ip), vehicle: saline) 98 % of control; (endpoint: mean survival time, dose: 0.4 mg/kg/injection, schedule: Q01DX009 (ip), vehicle: saline) 98 % of control; (endpoint: mean survival time, dose: 0.8 mg/kg/injection, schedule: Q01DX009 (ip), vehicle: saline) 100 % of control.

Take `CNc1ccc(C(=O)O)cc1OC`: the T/C was 100 % of control under setting [2], 100 % of control under setting [4] and 103 % of control under setting [6].

`C#CCOC(=O)Nc1cccc(OC(=O)NC)c1`: the T/C is, setting by setting: under setting [2], 99 % of control; under setting [4], 101 % of control; under setting [6], 97 % of control.

Take `COc1c(C)c(Br)c(OC)c2ccccc12`: the T/C runs as follows: under setting [2], 94 % of control; under setting [4], 94 % of control; under setting [6], 100 % of control.

For the molecule `N#CC(C#N)=Cc1ccc(Cl)cc1`, the T/C was 89 % of control (endpoint: mean survival time, dose: 25.0 mg/kg/injection, schedule: Q04DX003 (ip), vehicle: saline with Tween-80); 101 % of control (endpoint: mean survival time, dose: 50.0 mg/kg/injection, schedule: Q04DX003 (ip), vehicle: saline with Tween-80); 86 % of control and 98 % of control under setting [2].
